Results: EP0726261A1, “Herbidical 1,2,4 thiadiazoles” (American Cyanamid Company, priority 1995, dated 1996)

Assays:
Type in all cases: in vivo
[1] = tested on: Triticum aestivum; assay: Preemergence herbicidal activity (Example 67); set-up: herbicide rating, TRZAW: scale not given here; conditions: pre, 800 g/ha; for herbicide rating, TRZAW: rated about 1-3 weeks after treatment
How it was run: (§1)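 Soil surface of seeded cups sprayed with compound (800g/ha, 400 L/ha volume) from acetone/0.5% TRITON X-155 solutions diluted in water. Herbicidal effect scored on a rating scale roughly 1-3 weeks later, plants held in greenhouse.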

[2] = tested on: Chenopodium album; assay: Preemergence herbicidal activity (Example 67); conditions: pre, 800 g/ha; for herbicide rating, CHEAL: rated about 1-3 weeks after treatment
How it was run: as §1

[3] = tested on: Zea mays; assay: Preemergence herbicidal activity (Example 67); conditions: pre, 800 g/ha; for herbicide rating, ZEAMX: rated about 1-3 weeks after treatment
How it was run: as §1

[4] = tested on: Abutilon theophrasti; assay: Preemergence herbicidal activity (Example 67); conditions: pre, 800 g/ha; for herbicide rating, ABUTH: rated about 1-3 weeks after treatment
How it was run: as §1

[5] = tested on: Ipomoea hederacea; assay: Preemergence herbicidal activity (Example 67); conditions: pre, 800 g/ha; for herbicide rating, IPOHE: rated about 1-3 weeks after treatment
How it was run: as §1

[6] = tested on: Veronica persica; assay: Preemergence herbicidal activity (Example 67); conditions: pre, 800 g/ha; for herbicide rating, VERPE: rated about 1-3 weeks after treatment
How it was run: as §1

[7] = tested on: Galium aparine; assay: Preemergence herbicidal activity (Example 67); conditions: pre, 800 g/ha; for herbicide rating, GALAP: rated about 1-3 weeks after treatment
How it was run: as §1

[8] = tested on: Helianthus annuus; assay: Preemergence herbicidal activity (Example 67); conditions: pre, 800 g/ha; for herbicide rating, HELAN: rated about 1-3 weeks after treatment
How it was run: as §1

[9] = tested on: Amaranthus retroflexus; assay: Preemergence herbicidal activity (Example 67); conditions: pre, 800 g/ha; for herbicide rating, AMARE: rated about 1-3 weeks after treatment
How it was run: as §1

[10] = tested on: Hordeum vulgare; assay: Preemergence herbicidal activity (Example 67); set-up: herbicide rating, HORVW: scale not given here; conditions: pre, 800 g/ha; for herbicide rating, HORVW: rated about 1-3 weeks after treatment
How it was run: as §1

[11] = tested on: Setaria viridis; assay: Preemergence herbicidal activity (Example 67); set-up: herbicide rating, SETVI: scale not given here; conditions: pre, 800 g/ha; for herbicide rating, SETVI: rated about 1-3 weeks after treatment
How it was run: as §1

[12] = tested on: Alopecurus myosuroides; assay: Preemergence herbicidal activity (Example 67); set-up: herbicide rating, ALOMY: scale not given here; conditions: pre, 800 g/ha; for herbicide rating, ALOMY: rated about 1-3 weeks after treatment
How it was run: as §1

[13] = tested on: Chenopodium album; assay: Postemergence herbicidal activity (Example 67); conditions: pos, 800 g/ha; for herbicide rating, CHEAL: rated after 10-21 days
How it was run: (§2)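 Rating followed 10–21 days of greenhouse growth after treatment. Treatment was a single spray at a dose of 800 g/ha (400 L/ha spray volume) applied to plants 3–6 weeks old, using a water-diluted acetone solution containing 0.5% Triton X-155.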

[14] = tested on: Setaria viridis; assay: Postemergence herbicidal activity (Example 67); conditions: pos, 800 g/ha; for herbicide rating, SETVI: rated after 10-21 days
How it was run: as §2

[15] = tested on: Triticum aestivum; assay: Postemergence herbicidal activity (Example 67); conditions: pos, 800 g/ha; for herbicide rating, TRZAW: rated after 10-21 days
How it was run: as §2

[16] = tested on: Zea mays; assay: Postemergence herbicidal activity (Example 67); conditions: pos, 800 g/ha; for herbicide rating, ZEAMX: rated after 10-21 days
How it was run: as §2

[17] = tested on: Alopecurus myosuroides; assay: Postemergence herbicidal activity (Example 67); conditions: pos, 800 g/ha; for herbicide rating, ALOMY: rated after 10-21 days
How it was run: as §2

[18] = tested on: Abutilon theophrasti; assay: Postemergence herbicidal activity (Example 67); conditions: pos, 800 g/ha; for herbicide rating, ABUTH: rated after 10-21 days
How it was run: as §2

[19] = tested on: Ipomoea hederacea; assay: Postemergence herbicidal activity (Example 67); conditions: pos, 800 g/ha; for herbicide rating, IPOHE: rated after 10-21 days
How it was run: as §2

[20] = tested on: Veronica persica; assay: Postemergence herbicidal activity (Example 67); conditions: pos, 800 g/ha; for herbicide rating, VERPE: rated after 10-21 days
How it was run: as §2

[21] = tested on: Hordeum vulgare; assay: Postemergence herbicidal activity (Example 67); conditions: pos, 800 g/ha; for herbicide rating, HORVW: rated after 10-21 days
How it was run: as §2

[22] = tested on: Galium aparine; assay: Postemergence herbicidal activity (Example 67); conditions: pos, 800 g/ha; for herbicide rating, GALAP: rated after 10-21 days
How it was run: as §2

[23] = tested on: Helianthus annuus; assay: Postemergence herbicidal activity (Example 67); conditions: pos, 800 g/ha; for herbicide rating, HELAN: rated after 10-21 days
How it was run: as §2

[24] = tested on: Amaranthus retroflexus; assay: Postemergence herbicidal activity (Example 67); conditions: pos, 800 g/ha; for herbicide rating, AMARE: rated after 10-21 days
How it was run: as §2

`O=C(NC1CCCc2ccccc21)c1nc(-c2ccccc2F)ns1` (racemic) [Example 53] was tested, and the “TRZ AW rating” value [1] was 1 (1-5%), the “CHE AL rating” value [2] was 0 and the “ZEA MX rating” value [3] was 0. For the same molecule, the “ABU TH rating” value [4] was 0, the “IPO HE rating” value [5] was 0 and the “VER PE rating” value [6] was 6 (65-79%). For the same molecule, the “GAL AP rating” value [7] was 0, the “HEL AN rating” value [8] was 0 and the “AMA RE rating” value [9] was 3 (16-29%). For the same molecule, the “HOR VW rating” value [10] was 0, the “SET VI rating” value [11] was 0 and the “ALO MY rating” value [12] was 0. For the same molecule, the “CHE AL rating” value [13] was 0, the “SET VI rating” value [14] was 5 (45-64%) and the “TRZ AW rating” value [15] was 2 (6-15%). For the same molecule, the “ZEA MX rating” value [16] was 0, the “ALO MY rating” value [17] was 1 (1-5%) and the “ABU TH rating” value [18] was 0. For the same molecule, the “IPO HE rating” value [19] was 2 (6-15%), the “VER PE rating” value [20] was 0 and the “HOR VW rating” value [21] was 2 (6-15%). For the same molecule, the “GAL AP rating” value [22] was 2 (6-15%), the “HEL AN rating” value [23] was 0 and the “AMA RE rating” value [24] was 0.
`CC(NC(=O)c1nsc(-c2ccc(F)cc2)n1)c1cccs1` (racemic) [Example 39] was tested, and the “herbicide rating, TRZAW” value [1] was 0, the “herbicide rating, CHEAL” value [2] was 0 and the “herbicide rating, ZEAMX” value [3] was 0. The “herbicide rating, ABUTH” value [4] was 0, the “herbicide rating, IPOHE” value [5] was 0 and the “herbicide rating, VERPE” value [6] was 0. The “herbicide rating, GALAP” value [7] was 0, the “herbicide rating, HELAN” value [8] was 0 and the “herbicide rating, AMARE” value [9] was 4 (30-44%). The “herbicide rating, HORVW” value [10] was 0, the “herbicide rating, SETVI” value [11] was 0 and the “herbicide rating, ALOMY” value [12] was 0. The “herbicide rating, CHEAL” value [13] was 4 (30-44%), the “herbicide rating, SETVI” value [14] was 8 (91-99%) and the “herbicide rating, TRZAW” value [15] was 3 (16-29%). For the same molecule, the “herbicide rating, ZEAMX” value [16] was 6 (65-79%), the “herbicide rating, ALOMY” value [17] was 3 (16-29%) and the “herbicide rating, ABUTH” value [18] was 4 (30-44%). For the same molecule, the “herbicide rating, IPOHE” value [19] was 4 (30-44%), the “herbicide rating, VERPE” value [20] was 2 (6-15%) and the “herbicide rating, HORVW” value [21] was 3 (16-29%). The “herbicide rating, GALAP” value [22] was 5 (45-64%), the “herbicide rating, HELAN” value [23] was 6 (65-79%) and the “herbicide rating, AMARE” value [24] was 3 (16-29%).
For `COc1ccc(-c2nsc(C(=O)NCc3cccs3)n2)cc1` [Example 36], the “herbicide rating, TRZAW” value [1] was 0, the “herbicide rating, CHEAL” value [2] was 0 and the “herbicide rating, ZEAMX” value [3] was 3 (16-29%). For the same molecule, the “herbicide rating, ABUTH” value [4] was 0, the “herbicide rating, IPOHE” value [5] was 2 (6-15%) and the “herbicide rating, VERPE” value [6] was 0. For the same molecule, the “herbicide rating, GALAP” value [7] was 0, the “herbicide rating, HELAN” value [8] was 0 and the “herbicide rating, AMARE” value [9] was 0. The “herbicide rating, HORVW” value [10] was 0, the “herbicide rating, SETVI” value [11] was 0 and the “herbicide rating, ALOMY” value [12] was 0. The “herbicide rating, CHEAL” value [13] was 3 (16-29%), the “herbicide rating, SETVI” value [14] was 7 (80-90%) and the “herbicide rating, TRZAW” value [15] was 3 (16-29%). For the same molecule, the “herbicide rating, ZEAMX” value [16] was 0, the “herbicide rating, ALOMY” value [17] was 3 (16-29%) and the “herbicide rating, ABUTH” value [18] was 1 (1-5%). The “herbicide rating, IPOHE” value [19] was 3 (16-29%), the “herbicide rating, VERPE” value [20] was 2 (6-15%) and the “herbicide rating, HORVW” value [21] was 0. The “herbicide rating, GALAP” value [22] was 2 (6-15%), the “herbicide rating, HELAN” value [23] was 4 (30-44%) and the “herbicide rating, AMARE” value [24] was 2 (6-15%).
With `C[C@H](NC(=O)c1nsc(-c2ccccc2F)n1)c1ccccc1` [Example 56, (S)-5-(2-Fluorophenyl)-[1,2,4]thiadiazole-3-carboxylic acid, 1-(phenylethyl)amide] the “TRZ AW rating” value [1] was 0, the “CHE AL rating” value [2] was 2 (6-15%) and the “ZEA MX rating” value [3] was 0. The “ABU TH rating” value [4] was 2 (6-15%), the “IPO HE rating” value [5] was 3 (16-29%) and the “VER PE rating” value [6] was 4 (30-44%). For the same molecule, the “GAL AP rating” value [7] was 0, the “HEL AN rating” value [8] was 0 and the “AMA RE rating” value [9] was 5 (45-64%). The “HOR VW rating” value [10] was 0, the “SET VI rating” value [11] was 2 (6-15%) and the “ALO MY rating” value [12] was 0. The “CHE AL rating” value [13] was 4 (30-44%), the “SET VI rating” value [14] was 8 (91-99%) and the “TRZ AW rating” value [15] was 5 (45-64%). The “ZEA MX rating” value [16] was 4 (30-44%), the “ALO MY rating” value [17] was 5 (45-64%) and the “ABU TH rating” value [18] was 9 (100% effect). For the same molecule, the “IPO HE rating” value [19] was 8 (91-99%), the “VER PE rating” value [20] was 7 (80-90%) and the “HOR VW rating” value [21] was 5 (45-64%). For the same molecule, the “GAL AP rating” value [22] was 6 (65-79%), the “HEL AN rating” value [23] was 8 (91-99%) and the “AMA RE rating” value [24] was 7 (80-90%).
